Literature values in article PMC9366781 (ACS Omega, 2022).
Read-outs that look alike come from different tables or passages of the source.

System: EGFR

Row | Substance | affinity to the EGFR (different EGFR-positive cell lines (among these A431, MDA-MB-468, U87MG)) | affinity to the EGFR (same study as GE11 monomer) [nM]
1 | Tyr-His-Trp-Tyr-Gly-Tyr-Thr-Pro-Gln-Asn-Val-Ile [GE11] | more than 1 mM | –
2 | hEGF: endogenous EGFR ligand human epidermal growth factor, internal reference standard | – | 5.1 ± 0.9
